Measurements from patent US20250262211A1, “COMBINATION OF RAS INHIBITORS AND […] INHIBITORS FOR THE TREATMENT OF CANCERS” (INSTITUT NATIONAL DE LA SANTÉ ET DE LA RECHERCHE MÉDICALE, priority 2022, published 2025).

Columns and labels:
Format in all cases: cell-based
[1] = test system: Calu-1 KRAS (G12C)-mutant non-small cell lung cancer (NSCLC) cell line; experiment: FUCCI-transduced Calu-1 cells, response/relapse monitored by Incucyte during 50 days; details: Calu-1, 50 days
[2] = test system: H23 KRAS (G12C)-mutant non-small cell lung cancer (NSCLC) cell line; experiment: FUCCI-transduced H23 cells, response/relapse monitored by Incucyte during 50 days; details: H23, 50 days
H23 cells (KRas G12C) = experiment: Cell confluency of H23 cells under treatment, Incucyte Live-Cell Analysis / amidoblack staining; details: drug used alone, 1 μM, 35 days
Protocol: FIG. 1. […] A. Cell confluency was measured twice a week over 35 days of indicated treatments. B. Amidoblack staining of a 6-well plate after 35 of indicated treatments.
Medium was changed twice a week and cell confluency was monitored by Incucyte® Live-Cell Analysis System.

[3] = 1 μM tipifarnib added to 1 μM sotorasib

Row | Compound | emergence of resistant proliferative clones (total cell number) ([1]; 1 μM sotorasib alone) | emergence of resistant proliferative clones (total cell number) ([2]; 1 μM sotorasib alone) | anti-tumor effect (cell confluency) (H23 cells (KRas G12C)) | cell cycle dynamics [1, 3] | emergence of resistant proliferative clones (total cell number) [1, 3] | cell cycle dynamics [2, 3] | emergence of resistant proliferative clones (total cell number) [2, 3]
1 | C=CC(=O)N1CCN(c2nc(=O)n(-c3c(C)ccnc3C(C)C)c3nc(-c4c(O)cccc4F)c(F)cc23)[C@@H](C)C1 [sotorasib, 6-fluoro-7-(2-fluoro-6-hydroxyphenyl)-1-[4-methyl-2-(propan-2-yl)pyridin-3-yl]-4-[(2S)-2-methyl-4-(prop-2-enoyl)piperazin-1-yl]-1H,2H-pyrido[2,3-d]pyrimidin-2-one] | developed resistant proliferative clones (RPC) | developed resistant proliferative clones (RPC) | did not show a significant anti-tumor effect |  |  |  | 
2 | Cn1cncc1[C@@](N)(c1ccc(Cl)cc1)c1ccc2c(c1)c(-c1cccc(Cl)c1)cc(=O)n2C [tipifarnib, (R)-6-[amino (4-chlorophenyl) (1-methyl-1H-imidazol-5-yl)methyl]-4-(3-chlorophenyl)-1-methyl-2 (1H)-quinolinone] |  |  | did not show a significant anti-tumor effect | strongly impacting cell cycle dynamics, resulting in cell death | prevented the emergence of RPC | strongly impacting cell cycle dynamics, resulting in cell death | prevented the emergence of RPC
